In patent US6566047B1, “Method for identifying neurite-growth promoting agents” (The Regents of the University of Colorado, priority 1998, dated 2003):
Entries after “also recorded” stand apart in the source; their conditions may differ. Each block holds one compound with its values, some of them ahead of it.

Columns and labels:
12(S)-HETE receptor = settings: Liu et al. 1995; Herbertsson and Hammarstrom 1992; cited from earlier work
protein kinase C (PKC) = assay: MARCKS phosphorylation by PKC in isolated GCPs; assay type: biochemical, rat; settings: 30 sec @ 30° C.; 10^−6M or less free Ca^2+
Source text: FIG. 7A. Thrombin stimulates MARCKS phosphorylation in a 12-LOX-dependent manner. FIG. 7B. 12(S)-HETE stimulates MARCKS phosphorylation by PKC in isolated GCPs. […] Polypeptides were resolved by SDS-PAGE. MARCKS phosphorylation was quantified by phosphorimaging.

[1] = system: growth cones in cultures of rat cerebral cortex; assay: Growth cone collapse assay in cortical neuron culture; assay type: cell-based; settings: thrombin 100 nM; TRAP (100 mM); 12(S)-HETE 10^−7 M
Protocol: Neuron Culture. Cerebral cortices were dissected from embryonic day 18 Sprague-Dawley rats, cut into explants of less than 1 mm^3 and cultured on either poly-D-lysine-coated coverglass (Assistent) or poly-D-lvsine-coated tissue culture plastic. After 24 hours in B27 neurobasal medium (NB) supplemented with 10% fetal bovine serum, cultures were switched to serum-free B27/NB. The cultures were incubated at 37° C. in 5% CO2 in air. Sprouting neurons were observed readily on day 1. On day 2 or 3, long neurites were present, and the cultures were used for collapse experiments.
Actin Staining. After experimentation, cultures were fixed by slow infusion of fixative (4% paraformaldehyde in 0.1 M phosphate buffer, pH 7.4) into the culture dishes over 10 min (Pfenninger and Maylié-Pfenninger, J. Cell Biol. 89:53-546 (1981)). Thereafter, the fixative was removed by rinsing three times with phosphate-buffered saline (PBS) containing 1 mM glycine. Cultures were then blocked with PBS/1% bovine serum albumin (BSA) and permeabilized by incubation in 0.02% Triton X-100 for 5 min. After three washes in PBS/BSA, cultures were incubated with Texas-Red-conjugated phalloidin for 30 min. Unbound phalloidin was washed away by two PBS rinses, after which the coverglasses were mounted in Slow-Fade Light on microscope slides. Images were recorded on 35 mm film using a Zeiss Axiophot fluorescence microscope equipped with epiillumination.
Growth Cone Collapse Assay. Prior to repellent factor treatment, some of the day 2-3 explant cultures were pre-incubated (at 37° C.) with inhibitor or vehicle control (dimethylsulfoxide or ethanol) for 30-60 min. Cultures were then challenged with a repellent factor or vehicle control for 1-30 min. In some experiments, live cultures were photographed with a Zeiss IM 35 inverted photo microscope equipped with a stage heater, while in others cultures were fixed (as above) after 7 minutes of repellent factor treatment. Growth cone collapse was assessed quantitatively in aldehyde-fixed cultures by grading the degree of collapse in a large number of randomly selected growth cones.

[2] = system: high motility (MAT-Lu, MAT-LyLu and AT-3) Dunning carcinoma cells; assay: Pseudopod length assay, high-motility Dunning carcinoma cells; assay type: cell-based, rat
Protocol: (§1) Pseudopod Morphometry. To study the effects of various agents on pseudopods on a short-term basis, we measured pseudopod lengths. Cells plated in 35-mm diameter dishes at low density (1×10^4 per dish) were incubated overnight, tie medium was changed, and the experiments were run four hours later. First, cultures were shifted to serum-free medium, which was replaced one hour later by serum-free medium with or without the various agents (thrombin, AA or HETEs). Care was taken to avoid heat and light inactivation of the eicosanoids. Culture dishes were placed on a Zeiss inverted microscope equipped with a heated stage and viewed with a 16×phase contrast objective lens. Randomly selected fields of the cultures, containing generally about 20 cells each, were recorded, digitized and stored in the computer at the onset of the experiment and at different times thereafter.
In some cases, individual cells were monitored over different periods of time immediately after introduction of the reagent, either by mixing it into the medium or by applying it locally to one end of the cell. […] Cell morphology was recorded, and the captured images were analyzed with a Power Macintosh computer using NIH Image. Cell process length was measured from the center of the nucleus to the end of the process. […]

AT-2 cells = assay: Pseudopod length / retraction assay, AT-2 cells; assay type: cell-based, rat; settings: for pseudopod retraction response of AT-2 cells: AA even at 10^−1M
Protocol: as §1
(§2) In some cases, individual cells were monitored over different periods of time immediately after introduction of the reagent, either by mixing it into the medium or by applying it locally to one end of the cell. Local application was done with a “puffer” system that expels microliter amounts of the desired solution from a micromanipulator-controlled micropipette tip. Cell morphology was recorded, and the captured images were analyzed with a Power Macintosh computer using NIH Image. Cell process length was measured from the center of the nucleus to the end of the process. Characterization of the frequencies of pseudopod lengths, at a fixed time for each of a sequence of concentrations of reagent, utilized a gamma regression model with an inverse quadratic linear predictor (McCullagh and Nelder, Generalized Linear Models 2d ed., pp. 291-292 (Chapman & Hall, 1989), separately fit to each concentration data set. Although no formal goodness-of-fit tests were carried out, in virtually every case there was good visual representation of the pattern of response (see FIG. 14). Most data, however, are shown as whisker-box plots, where the center point represents the 50%, the ends of the box the […] and 75%, and the “whiskers” the 5% and 95% quantiles (e.g., FIG. 11). Statistical comparisons of pseudopod lengths for different treatments were done by standard non-parametric techniques (Wilcoxon Rank Sum or Kruskal-Wallis Tests), as judged appropriate. Polynomial curve fittings were done by standard least-squares techniques. Statistical analyses and graphing were done with the use of SAS procedures: Reg, Phreg, Nparlway and Plot (SAS institute Inc., Cary, N.C.).

MAT-Lu cells [3] = assay: Pseudopod morphometry (pseudopod length assay), MAT-Lu cells; assay type: cell-based, rat
Protocol: as §1, §2

growth cone PLA2 = assay: PLA2 assay in growth cone particles (GCPs); assay type: biochemical, rat
Protocol: Growth Cone Particle (GCP) Isolation. GCPs were prepared as described by Pfenninger et al. (1983) and modified by Lohse et al., Dev. Brain Res., 96:38-96 (1996). Briefly, 18-day fetal brains were homogenized in approximately 8 volumes of 0.32 M sucrose containing 1 mM MgCl2, 2 mM TES buffer, pH 7.3, and 3 μM aprotinin. A low-speed supernatant (1,660 g×15 min) was loaded onto a discontinuous sucrose density gradient With steps of 0.83 M and 2.66 M sucrose containing MgCl2 and TES. The gradients were spun to equilibrium at 242,000 g for 40 min in a vertical rotor (Vti50, Beckman). The GCP fraction at the 0.32/0.83 M sucrose interface was collected and used for the experiments described below.
(§3) All assays were run in triplicate.

cPLA2 = assay: PLA2 activity (14C-AA release) in MAT-Lu cells; assay type: biochemical, rat; settings: 5 mM dithiothreitol
Protocol: MAT-Lu cells were plated at a density of 0.5×10^6 cells per flask (T-75) and grown as detailed above to approximately 25% confluency. On the day before the experiments, the serum level in the medium was dropped to 1%. Cells were fed with fresh 1% serum-medium 4 hrs prior to harvest. For harvesting, cells were rinsed with Ca^++,Mg^++-free HBSS, covered with 2 ml cold Ca^++-free modified Krebs buffer (220 mM sucrose, 50 mM NaCl, 5 mM KCl, 22 mM HEPES, 10 mM glucose. 1.2 mM NaH2PO4 and 1.2 mM MgCl2, pH 7.3), and placed on ice. Cells were scraped off, pelleted for 5 min at 200 rpm and re-suspended in a minimal volume of Krebs buffer. Aliquots were used to determine protein concentration (Biorad Assay) and phopholipase activity. To measure PLA2 activity 10-12 μg of cell protein was incubated with or without thrombin for 10 min on ice, ^14C-AA-labeled phospholipid substrate (7 μM. 40-60 mCi/mmol) was added, and the mixture was transferred to 37° for 20 min. The reaction was stopped by adding cold cliloroform/methanol (1:2 v/v). Lipid extraction followed by thin-layer chromatography (Negre-Aminou et al., J Neurochem 67:2599-2608 (1996)) isolated the reaction product (identified by co-migration with AA standard), which was then scraped off the plates and analyzed in a scintillation spectrometer (Beckman). In some experiments, especially those involving ^14C-AA-phosphatidylinositol as substrate, the diacylglycerol-containing band (identified by co-migration of standard) also was scraped and counted in order to measure phospholipase C (PLC) activity.

growth cone PLC = assay: Phospholipase C assay (DG release) in GCPs; assay type: biochemical, rat; settings: IGF-1, low nanomolar range; 10 μM free Ca^2+
Source text: as §3

MAT-Lu cells [4] = assay: Boyden chamber motility assay, MAT-Lu cells; assay type: cell-based, rat
Protocol: Boyden Chamber Motility Assays. Disposable transwells (Coming Costar, Cambridge, Mass.) of 6.5 mm diameter and 8 μm pore size were coated with 5 μg/ml laminin on both sides. The membranes were washed twice with Hank's balanced salt solution (HBSS) and then pre-incubated with growth medium containing 10% fetal bovine serum. Trypsinized cells (5×10^4) were plated into the upper well. After 1 hour the upper chamber was washed twice with HBSS, filled with serum-free medium and moved to a new lower chamber, also filled with serum-free medium, with or without thrombin and/or 0.75 nM insulin-like growth factor-1 (IGF-1). After incubation for 4 hrs, cells on the membrane were fixed and stained with a Diff-Quick kit (Baxter Scientific Products). Cells on the upper side were scraped off, the membranes were removed, mounted onto microscope slides and analyzed. Each filter was scanned twice at right angles under the light microscope with a 16×phase contrast objective lens. A continuous series of 20 frames for each filter was digitized using a high-resolution CCD camera (Kodak) and stored in a Power Macintosh computer. The two most peripheral pairs of frames from each scan were deleted so that 12 frames were analyzed for each filter. Cells that had crossed the membrane were counted and tabulated. The sum of the cells counted in the twelve frames was an individual data point.

PKC γ = PKC γ (Rattus norvegicus, UniProt P63319); settings: Naor et al. 1988; cited from earlier work

- concentration at peak of MARCKS and GAP43 phosphorylation (biphasic) (protein kinase C (PKC)): about 10^−10 M
Compound: CCCCC/C=C\C[C@H](O)/C=C/C=C\C/C=C\CCCC(=O)O [12(S)-HETE, 12(S)-hydroxyeicosatetraenoic acid]
- Kd (12(S)-HETE receptor): 1 nM
- time required for saturation (12(S)-HETE receptor): 90 to 120 min
- growth cone collapse, agent alone [1]: mimics the effects of thrombin and TRAP; also recorded: does indeed cause growth cone collapse
- concentration at peak of pseudopod retraction ([2]; 15-min incubation): 10^−11 to 10^−10 M
- effect on AT-2 pseudopod length (AT-2 cells; 10^−11M): seems to increase pseudopod length
- pseudopod retraction response of AT-2 cells (AT-2 cells): retraction was not observed
- time until pseudopod shortening nearly complete for most cells (MAT-Lu cells [3]; 10^−10M by medium replacement): about 15 min
- time at which pseudopod lengths reach a minimum (MAT-Lu cells [3]; 10^−10 M by medium replacement, 73 pseudopods): about 17 min
- length reduction for the median pseudopod length versus control (MAT-Lu cells [3]; at 10^−11 and 10^−10 M, 15 min, p<0.0001): > 45%
- time until pseudopod absorbed completely into the cell (MAT-Lu cells [3]; local application, 10^−10M): about 15 min
- onset of pseudopod detachment and shortening (MAT-Lu cells [3]; local application, 10^−10M, about 10 μm from cell process): ≤ 1 min

Compound: O[C@H](CS)[C@H](O)CS (racemic) [DTT, dithiothreitol]
- net activity (pmol/min/mg protein), 50 nM DTT (growth cone PLA2; Table 3b, GCPs, substrate PI, thrombin 100 nM or control): 66.0 ± 4.7 pmol/min/mg protein
- effect of reducing agent on measured PLA2 activity (cPLA2): did not significantly inhibit the measured PLA2 activity

- stimulation of DG release in GCPs (growth cone PLC): approximately two-fold
Compound: IGF-1: insulin-like growth factor-1, positive chemotactic factor
- stimulation of AA release from PI (growth cone PLA2; IGF-1, low nanomolar range, 10 μM free Ca^2+): about 1.7 fold
- net activity (pmol/min/mg protein) (growth cone PLA2; Table 3c, GCPs, substrate PI, BDNF 100, IGF-1 0.75, insulin 1, thrombin 200 nM, control 159 ± 6.2): 177 ± 14.5 pmol/min/mg protein
- Mat-Lu cells crossing filter in % of control +/− SEM (MAT-Lu cells [4]; IGF-1 (0.75 nM), 4 hr, thrombin 200 nM, CDC 126 nM): 184 +/− 15 % of control
- enhancement of MAT-Lu migration across laminin-coated membrane (MAT-Lu cells [4]; IGF-1 in the lower chamber, 4 hr): about 1.8 fold
- increase in MAT-Lu migration (MAT-Lu cells [4]; four-hour assays): about 80%

Compound: CCCCC/C=C\C/C=C\C/C=C\C/C=C\CCCC(=O)O [AA, arachidonic acid]
- pseudopod response to AA ([2]; all three high-motility cell types): responded to AA in the manner described for MAT-Lu cells
- concentration at peak of biphasic PKC γ response (PKC γ): 12 µM
- pseudopod retraction response of AT-2 cells (AT-2 cells): almost completely insensitive
- effect of agent alone on pseudopod length (MAT-Lu cells [3]; typically 15 min exposure): caused significant but reversible reduction of pseudopod length; also recorded: mimics the thrombin-induced length reduction; also recorded: causes statistically significant pseudopod shortening
